Results reported in patent US11058695B2, “Inhibitor of carbapenem-hydrolyzing class D beta-lactamases” (MYONGJI UNIVERSITY INDUSTRY AND ACADEMIA COOPERATION …, priority 2019, dated 2021).
Like-named read-outs stand apart in the source and are kept apart here.

What was measured:
OXA-48 = OXA-48 (Klebsiella pneumoniae, UniProt Q6XEC0); assay: OXA-48 enzyme inhibition assay with nitrocefin; format: biochemical; settings: OXA-48 103 pM
Experimental: (§1) The screened 7 compounds were dissolved in 100% DMSO at 10 mM. More diluted stocks were prepared as necessary. OXA-48 activity was determined by monitoring the change of absorbance at 482 nm using the characteristic molecular extinction coefficient (Δε482=15,900 M^−1 cm^−1) of nitrocefin (Oxoid, Hampshire, UK) by a Shimazu UV-1650PC spectrophotometer. Up to 5% DMSO, no influence on the enzyme activity of OXA-48 was observed. The assays were conducted in 10 mM MES (pH 6.8) containing OXA-48 (103 pM), 50 mM NaHCO3, and 20 μg/mL bovine serum albumin. After 5 min of pre-incubation of the purified OXA-48 and each inhibitor at 30° C., the enzymatic reaction was started by adding nitrocefin (100 μM). Residual velocities were determined after 5 minutes. The first 120 s of each reaction was used to measure initial rates. Data were evaluated using Microsoft Excel. Concentration-dependent inhibition of OXA-48 was measured using different concentrations of seven compounds resulting from two-fold dilution series. Reaction progress at every concentration of seven compounds was measured in triplicates. IC50 values were calculated using 4-parameter log fits using XL Fit curve fitting software (www.idbs.com) for Excel using the following equation:
(§2) [formula] where y is the remaining enzyme activity (in %) and x is the corresponding concentration. […]

OXA-109 = OXA-109 (Acinetobacter baumannii, UniProt A8JZR7); assay: CHDL enzyme inhibition assay with nitrocefin; format: biochemical; settings: OXA-109 168 nM, 100 μM nitrocefin, 5 minute pre-incubation; read-out: IC50 against OXA-109
OXA-109, sequence (A8JZR7 entry or part of it): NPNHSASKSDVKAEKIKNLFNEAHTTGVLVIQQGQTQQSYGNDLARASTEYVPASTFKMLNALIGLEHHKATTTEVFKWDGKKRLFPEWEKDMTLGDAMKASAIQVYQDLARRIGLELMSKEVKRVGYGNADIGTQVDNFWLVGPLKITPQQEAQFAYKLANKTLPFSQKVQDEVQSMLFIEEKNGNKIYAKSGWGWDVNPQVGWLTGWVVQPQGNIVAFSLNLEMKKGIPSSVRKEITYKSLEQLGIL
Experimental: as §1
(§3) [formula] where y is the remaining enzyme activity (in %) and x is the corresponding concentration. The fitted IC50 parameter is defined as the concentration giving a response half way between the fitted top (B) and bottom (A) of the curve.
(§4) To investigate the inhibitory effects of the novel inhibitor (PLPBA) against eight CHDLs belonging to six clinically-important CHDL subgroups(member of OXA-23 subgroup: OXA-23; member of OXA-24/40 subgroup: OXA-24/40; member of OXA-48 subgroup: OXA-48; members of OXA-51 subgroup: OXA-51 and OXA-109; member of OXA-58 subgroup: OXA-97; member of OXA-143 subgroup: OXA-143) and five CHDLs belonging to four emerging CHDL subgroups (member of OXA-211 subgroup: OXA-211; members of OXA-229 subgroup: OXA-229 and OXA-418; member of OXA-210 subgroup: OXA-210; and member of OXA-240 subgroup: OXA-240), the IC50 values for them were determined (Table 3). PLPBA was dissolved in 100% DMSO at 10 mM. More diluted stocks were prepared as necessary. Activities of CHDLs were determined by monitoring the change of absorbance at 482 nm. Up to 5% DMSO, no influence on the enzyme activities of CHDLs was observed. Each enzyme (OXA-23, 418 pM; OXA-24/40, 134 pM; OXA-48, 103 pM; OXA-51, 184 nM; OXA-97, 178 pM; OXA-109, 168 nM; OXA-143, 96 pM; OXA-210, 179 pM; OXA-211, 701 pM; OXA-229, 142 pM; OXA-240, 383 pM; OXA-418, 158 pM) was mixed with 100 μM nitrocefin after a 5 minute pre-incubation with PLPBA. The first 120 s of each reaction was used to measure initial rates. Data were evaluated using Microsoft Excel. Reaction progress at every concentration of PLPBA was measured in triplicates.

OXA-143 = OXA-143 (Acinetobacter baumannii, UniProt D0UHC8); assay: CHDL enzyme inhibition assay with nitrocefin; format: biochemical; settings: OXA-143 96 pM, 100 μM nitrocefin, 5 minute pre-incubation; read-out: IC50 against OXA-143
OXA-143, sequence (D0UHC8 entry or part of it): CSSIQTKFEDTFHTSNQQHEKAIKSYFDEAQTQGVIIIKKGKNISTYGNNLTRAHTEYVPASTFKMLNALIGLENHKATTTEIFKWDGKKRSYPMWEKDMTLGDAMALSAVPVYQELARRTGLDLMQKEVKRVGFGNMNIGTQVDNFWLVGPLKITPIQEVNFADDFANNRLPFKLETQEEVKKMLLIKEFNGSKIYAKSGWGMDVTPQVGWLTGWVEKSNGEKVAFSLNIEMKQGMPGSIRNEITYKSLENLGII
Experimental: as §1, §3, §4

OXA-210 = OXA-210 (Pseudomonas aeruginosa, UniProt F6ME16); assay: CHDL enzyme inhibition assay with nitrocefin; format: biochemical
OXA-210, sequence (F6ME16 entry or part of it): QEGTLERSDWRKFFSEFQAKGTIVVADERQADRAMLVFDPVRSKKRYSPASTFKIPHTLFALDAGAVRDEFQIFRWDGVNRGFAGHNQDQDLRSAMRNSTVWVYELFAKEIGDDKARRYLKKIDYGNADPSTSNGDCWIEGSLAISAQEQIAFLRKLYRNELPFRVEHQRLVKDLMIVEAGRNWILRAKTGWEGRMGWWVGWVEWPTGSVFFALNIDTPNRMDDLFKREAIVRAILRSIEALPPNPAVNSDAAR
Experimental: as §1, §3, §4

OXA-211 = OXA-211 (Acinetobacter johnsonii, UniProt G9JKV7); assay: CHDL enzyme inhibition assay with nitrocefin; format: biochemical; settings: OXA-211 701 pM, 100 μM nitrocefin, 5 minute pre-incubation; read-out: IC50 against OXA-211
OXA-211, sequence (G9JKV7 entry or part of it): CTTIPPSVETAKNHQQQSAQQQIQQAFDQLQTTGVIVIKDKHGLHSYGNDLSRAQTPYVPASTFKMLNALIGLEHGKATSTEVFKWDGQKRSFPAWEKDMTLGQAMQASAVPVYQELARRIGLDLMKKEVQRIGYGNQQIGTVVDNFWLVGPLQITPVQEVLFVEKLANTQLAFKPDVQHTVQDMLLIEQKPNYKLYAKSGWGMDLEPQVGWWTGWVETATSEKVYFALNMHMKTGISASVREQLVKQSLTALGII
Experimental: as §1, §3, §4

OXA-229 = OXA-229 (Acinetobacter bereziniae, UniProt I6S7G0); assay: CHDL enzyme inhibition assay with nitrocefin; format: biochemical; settings: OXA-229 142 pM, 100 μM nitrocefin, 5 minute pre-incubation; read-out: IC50 against OXA-229
OXA-229, sequence (I6S7G0 entry or part of it): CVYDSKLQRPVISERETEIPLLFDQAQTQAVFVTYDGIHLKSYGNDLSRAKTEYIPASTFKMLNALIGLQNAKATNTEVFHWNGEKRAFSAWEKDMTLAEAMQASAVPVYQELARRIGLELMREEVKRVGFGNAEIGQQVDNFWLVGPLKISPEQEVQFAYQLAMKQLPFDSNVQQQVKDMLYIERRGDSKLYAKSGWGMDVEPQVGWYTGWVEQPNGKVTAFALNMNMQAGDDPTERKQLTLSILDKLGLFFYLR
Experimental: as §1, §3, §4

OXA-23 = OXA-23 (Acinetobacter baumannii, UniProt Q9L4P2); assay: CHDL enzyme inhibition assay with nitrocefin; format: biochemical; settings: OXA-23 418 pM, 100 μM nitrocefin, 5 minute pre-incubation; read-out: IC50 against OXA-23
OXA-23, sequence (Q9L4P2 31-273 limits assumed): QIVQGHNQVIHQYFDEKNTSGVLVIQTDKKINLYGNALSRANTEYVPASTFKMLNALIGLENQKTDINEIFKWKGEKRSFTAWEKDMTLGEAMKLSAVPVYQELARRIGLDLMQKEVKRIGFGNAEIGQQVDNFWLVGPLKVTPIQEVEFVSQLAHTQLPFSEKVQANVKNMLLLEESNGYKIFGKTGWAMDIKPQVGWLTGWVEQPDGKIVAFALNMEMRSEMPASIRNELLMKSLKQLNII
Experimental: as §1, §3, §4

OXA-24/40 = OXA-24/40 (Acinetobacter baumannii, UniProt Q8RLA6); assay: CHDL enzyme inhibition assay with nitrocefin; format: biochemical
OXA-24/40, sequence (Q8RLA6 entry or part of it): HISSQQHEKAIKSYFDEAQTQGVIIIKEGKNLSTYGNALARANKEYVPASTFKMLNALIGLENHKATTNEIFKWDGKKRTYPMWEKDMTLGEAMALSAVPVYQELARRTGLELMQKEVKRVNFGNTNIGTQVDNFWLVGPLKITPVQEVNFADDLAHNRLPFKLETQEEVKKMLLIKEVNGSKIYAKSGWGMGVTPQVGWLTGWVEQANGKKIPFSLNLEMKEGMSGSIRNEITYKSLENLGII
Experimental: as §1, §3, §4

OXA-51 = OXA-51 (Acinetobacter baumannii, UniProt Q5QT35); assay: CHDL enzyme inhibition assay with nitrocefin; format: biochemical; settings: OXA-51 184 nM, 100 μM nitrocefin, 5 minute pre-incubation; read-out: IC50 against OXA-51
OXA-51, sequence (Q5QT35 entry or part of it): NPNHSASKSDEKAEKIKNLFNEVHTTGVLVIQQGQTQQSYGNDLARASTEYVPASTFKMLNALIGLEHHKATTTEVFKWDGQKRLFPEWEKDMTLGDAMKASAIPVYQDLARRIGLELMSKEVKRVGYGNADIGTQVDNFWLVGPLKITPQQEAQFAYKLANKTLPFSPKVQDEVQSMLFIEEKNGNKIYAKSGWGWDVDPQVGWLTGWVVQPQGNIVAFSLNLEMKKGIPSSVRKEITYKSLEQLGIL
Experimental: as §1, §3, §4

OXA-97 = OXA-97 (Acinetobacter baumannii, UniProt A5Y470); assay: CHDL enzyme inhibition assay with nitrocefin; format: biochemical; settings: OXA-97 178 pM, 100 μM nitrocefin, 5 minute pre-incubation; read-out: IC50 against OXA-97
OXA-97, sequence (A5Y470 entry or part of it): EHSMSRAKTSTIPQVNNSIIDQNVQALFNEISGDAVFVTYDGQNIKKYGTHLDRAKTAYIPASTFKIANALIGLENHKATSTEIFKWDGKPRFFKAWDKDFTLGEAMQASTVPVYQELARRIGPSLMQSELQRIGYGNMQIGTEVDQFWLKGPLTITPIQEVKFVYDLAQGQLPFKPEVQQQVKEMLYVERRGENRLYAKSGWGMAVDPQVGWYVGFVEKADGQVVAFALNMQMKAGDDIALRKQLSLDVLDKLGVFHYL
Experimental: as §1, §3, §4

OXA-240 = OXA-240 (Pseudomonas aeruginosa, UniProt I6VVS5); assay: CHDL enzyme inhibition assay with nitrocefin; format: biochemical, P. aeruginosa; settings: OXA-240 383 pM, 100 μM nitrocefin, 5 minute pre-incubation; read-out: IC50 against OXA-240
OXA-240, sequence (I6VVS5 21-266 limits assumed): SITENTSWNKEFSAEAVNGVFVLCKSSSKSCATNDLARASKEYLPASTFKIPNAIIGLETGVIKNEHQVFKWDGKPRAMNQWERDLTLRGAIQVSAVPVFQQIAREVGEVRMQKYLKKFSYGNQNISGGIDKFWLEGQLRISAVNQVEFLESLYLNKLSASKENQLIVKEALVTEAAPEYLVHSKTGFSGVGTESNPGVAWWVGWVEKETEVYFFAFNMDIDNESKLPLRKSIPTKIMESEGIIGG
Experimental: as §1, §2

OXA-48, sequence (Q6XEC0 24-265 limits assumed, looked up): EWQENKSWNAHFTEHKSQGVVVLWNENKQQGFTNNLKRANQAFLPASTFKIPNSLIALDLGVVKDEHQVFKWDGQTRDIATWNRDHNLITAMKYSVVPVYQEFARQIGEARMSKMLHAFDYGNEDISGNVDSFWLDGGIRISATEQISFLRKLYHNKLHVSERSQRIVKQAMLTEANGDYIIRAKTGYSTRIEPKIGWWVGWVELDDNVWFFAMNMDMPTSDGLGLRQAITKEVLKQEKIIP

For OB(O)c1cccc(OCCc2ccccc2)c1 [Compound 1, [3-(2-Phenylethoxy)phenyl]boronic Acid], the IC50 (OXA-48; nitrocefin 100 μM, 5 min pre-incubation at 30° C., 10 mM MES pH 6.8, read-out: IC50 values on OXA-48 of the screened compounds) was 155 µM, the IC50 (OXA-48; Table 3, 100 μM nitrocefin, 5 minute pre-incubation, read-out: IC50 against OXA-48) was 154.84 ± 0.02 µM and the IC50 (OXA-109) was 864.59 ± 0.02 µM. The IC50 (OXA-143) was 91.79 ± 0.01 µM, the IC50 (OXA-210) was 218.79 ± 0.02 µM and the IC50 (OXA-211) was 238.51 ± 0.01 µM. It also gave an IC50 (OXA-229) of 171.93 ± 0.01 µM, an IC50 (OXA-23) of 275.54 ± 0.02 µM and an IC50 (OXA-24/40) of 384.73 ± 0.02 µM. For the same compound, the IC50 (OXA-51) was 594.73 ± 0.01 µM, the IC50 (OXA-97) was 189.02 ± 0.01 µM and the IC50 (OXA-240) was 218.59 ± 0.03 µM.
